Experimental data: patent publication US20050256103A1, “Indole derivative having piperidine ring” (Eisai Co., Ltd., priority 2004, published 2005)
Where two headings read alike, the source gives them in different places.

Tests used:
5-HT1A receptor = biological target: T1, 5-HT1A receptor (Sus scrofa, UniProt A0A4X1UTF5); assay: Affinity for serotonin 1A receptor: inhibition of [3H]MPPF binding in swine hippocampal membrane fraction; settings: for IC50: [3H]MPPF 0.5 nM, swine hippocampal membrane, 37°C 30 min; for L/H ratio: low affinity IC50 divided by high affinity IC50, 1 or smaller = no intrinsic activity, 2 or greater = intrinsic activity
T1 construct: Swine hippocampus was homogenized in a 50 mM Tris-Hcl buffer; from tissue; host or cells: swine hippocampus, membrane fraction
T1 sequence (A0A4X1UTF5 1-422): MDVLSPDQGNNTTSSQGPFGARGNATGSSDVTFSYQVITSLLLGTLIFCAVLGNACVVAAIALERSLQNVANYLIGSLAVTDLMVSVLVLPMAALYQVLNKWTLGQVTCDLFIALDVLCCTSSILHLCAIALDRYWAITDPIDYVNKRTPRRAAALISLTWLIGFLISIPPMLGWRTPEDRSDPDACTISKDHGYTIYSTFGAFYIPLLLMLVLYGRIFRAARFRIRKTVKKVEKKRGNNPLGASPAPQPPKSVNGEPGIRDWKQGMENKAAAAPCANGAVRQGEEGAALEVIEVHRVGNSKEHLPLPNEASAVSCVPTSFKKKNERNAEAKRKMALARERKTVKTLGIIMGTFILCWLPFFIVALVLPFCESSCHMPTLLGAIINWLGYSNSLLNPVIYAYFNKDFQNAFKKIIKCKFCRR
Text: (1) The affinity of a test substance for a 5-HT1A receptor was examined by an inhibition experiment, in which the inhibitory effect of the test substance against the binding of [^3H]-4-(2′-methoxy)phenyl-1-(2′-(N-2″-pyridinyl)-p-fluorobenzamido)ethyl-piperazine (MPPF) that selectively binds to the 5-HT1A receptor in a swine hippocampal membrane fraction was examined. The 5-HT1A receptor that is a G-protein binding receptor becomes a G-protein binding state with addition of MgCl2. In contrast, it becomes a G-protein non-binding state with addition of guanylylimido diphosphate (Gpp(NH)p). […] Thus, both the affinity of a test substance to the receptor that was in a state of not binding to the G-protein and the affinity of the test substance to the receptor that was in a state of binding to the G-protein were obtained. Then, the obtained values were compared to each other, so as to estimate the level of the intrinsic activity of the test substance. Theoretically, when the value (L/H) obtained by dividing the affinity of a test substance to the receptor that is in a low affinity state (IC50 value) by the affinity of a test substance to the receptor that is in a high affinity state (IC50 value) is 1 or less, the intrinsic activity thereof is zero. The greater this value, the higher the intrinsic activity that can be obtained.
Swine hippocampus was homogenized in a 50 mM Tris-Hcl buffer (pH 7.4; hereinafter referred to as buffer A) that had been cooled on ice. The suspension was centrifuged at 40,000×g for 15 minutes. The obtained pellet was suspended in buffer solution A, and the thus obtained solution was then centrifuged at 40,000×g for 15 minutes. The same operation was repeated 2 or 3 times. The finally obtained pellet was suspended in a buffer solution A in an amount 10 times the wet weight of the swine hippocampus, so as to obtain a membrane fraction. The obtained membrane fraction was stored at −80° C. until use.
A mixture (0.5 ml) used for incubation comprised an appropriate amount of the membrane fraction, a test substance with a desired concentration, MgCl2 (final concentration: 10 mM) or Gpp(NH)p (final concentration: 1 mM), [^3H]MPPF (final concentration: 0.5 nM), dimethyl sulfoxide (final concentration: 1% (v/v)), and a 50 mM Tris-Hcl buffer (pH 7.4). The reaction was initiated with addition of the membrane fraction, and the mixture was incubated at 37° C. for 30 minutes. After completion of the incubation, the mixture was subjected to vacuum filtration with a glass filter, using Cell Harvester. The filter was washed with buffer solution A that had been cooled on ice. Thereafter, radioactivity binding to the receptor was measured with a liquid scintillation counter. Non-specific binding was defined as binding detected in the presence of 10 μM WAY-100,635.

serotonin 1A receptor = biological target: T2, serotonin 1A receptor (Mus musculus, UniProt Q64264); assay: Antagonistic effect on serotonin 1A receptor agonist (8-OH-DPAT)-induced hypothermia in mouse; format: in vivo; settings: CD-1 (ICR) male mice; inhibition of hypothermia by 8-OH-DPAT 0.5 mg/kg sc; test substance 15 minutes before agonist
T2 construct: into the rectum of CD-1 (ICR) male mice (25-45 g); from tissue; host or cells: living CD-1 (ICR) male mice (in vivo)
T2 sequence (Q64264 1-421): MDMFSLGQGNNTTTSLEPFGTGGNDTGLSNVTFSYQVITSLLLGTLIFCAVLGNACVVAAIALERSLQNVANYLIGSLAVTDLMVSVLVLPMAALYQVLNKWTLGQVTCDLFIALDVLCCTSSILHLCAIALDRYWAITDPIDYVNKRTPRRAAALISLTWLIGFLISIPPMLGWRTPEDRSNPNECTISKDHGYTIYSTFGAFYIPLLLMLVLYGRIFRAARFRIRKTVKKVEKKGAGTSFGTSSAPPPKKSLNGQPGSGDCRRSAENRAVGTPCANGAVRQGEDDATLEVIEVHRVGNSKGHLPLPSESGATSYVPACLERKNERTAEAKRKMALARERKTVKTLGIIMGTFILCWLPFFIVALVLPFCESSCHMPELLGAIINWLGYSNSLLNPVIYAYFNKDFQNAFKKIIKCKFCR
Procedure: (1) A thermistor probe was inserted at a depth of approximately 2 cm into the rectum of CD-1 (ICR) male mice (25-45 g), so as to measure the body temperature thereof. Body temperature is decreased by subcutaneous administration of serotonin 1A receptor agonist (8-hydroxy-dipropylaminotetralin (8-OH-DPAT) 0;5 mg/kg. Since a serotonin 1A antagonist inhibits such action, the antagonistic effect of a test substance to a serotonin 1A receptor was evaluated using the inhibitory effect of the hypothermia as an index. The test results are shown in Table 2 indicated below. A test substance was administered 15 minutes before the administration of the serotonin 1A agonist. A serotonin 1A partial agonist alone decreases the body temperature, depending on the degree of the agonistic action thereof. In addition, it has a weak antagonistic effect on 8-OH-DPAT-induced hypothermia.

[1] = receptor in high affinity (G-protein binding, MgCl2 10 mM) state, read-out: High affinity IC50
[2] = receptor in low affinity (G-protein non-binding, Gpp(NH)p 1 mM) state, read-out: Low affinity IC50

CCc1nc2ccc(OC)c(CCN3CCC(n4ccc5ccc(C(N)=O)cc54)CC3)c2o1 [Compound 5]
IC50 (5-HT1A receptor; [1]): 570 pM | IC50 (5-HT1A receptor; [2]): 450 pM | L/H ratio (5-HT1A receptor): 0.8 | ED50 (serotonin 1A receptor): 0.24 mg/kg, sc

CCc1nc2cc(CCN3CCC(n4ccc5ccc(C(N)=O)cc54)CC3)c(OC)cc2o1 [Compound 6, 1-{1-[2-(2-ethyl-6-methoxybenzoxazol-5-yl)ethyl]piperidin-4-yl}-1H-indole-6-carboxamide]
IC50 (5-HT1A receptor; [1]): 200 pM | IC50 (5-HT1A receptor; [2]): 200 pM | L/H ratio (5-HT1A receptor): 1 | ED50 (serotonin 1A receptor): 0.35 mg/kg, sc

COc1ccc2oc(C)nc2c1CCN1CCC(n2ccc3ccc(C(N)=O)cc32)CC1 [Compound 7, 1-{1-[2-(5-methoxy-2-methylbenzoxazol-4-yl)ethyl]piperidin-4-yl)-1H-indole-6-carboxamide]
IC50 (5-HT1A receptor; [1]): 410 pM | IC50 (5-HT1A receptor; [2]): 300 pM | L/H ratio (5-HT1A receptor): 0.7 | ED50 (serotonin 1A receptor): 0.38 mg/kg, sc

COc1cc2nc(C)oc2cc1CCN1CCC(n2ccc3ccc(C(N)=O)cc32)CC1 [Compound 8, 1-{1-[2-(5-methoxy-2-methylbenzoxazol-6-yl)ethyl]piperidin-4-yl}-1H-indole-6-carboxamide]
IC50 (5-HT1A receptor; [1]): 220 pM | IC50 (5-HT1A receptor; [2]): 230 pM | L/H ratio (5-HT1A receptor): 1 | ED50 (serotonin 1A receptor): 0.07 mg/kg, sc

COc1cc2c(cc1CCN1CCC(n3ccc4ccc(C(N)=O)cc43)CC1)C(=O)N(C)CCO2 [Compound 9, 1-{1-[2-(8-methoxy-4-methyl-5-oxo-2,3,4,5-tetrahydrobenzo[f][1,4]oxazepin-7-yl)ethyl]piperidin-4-yl}-1H-indole-6-carboxamide]
IC50 (5-HT1A receptor; [1]): 170 pM | IC50 (5-HT1A receptor; [2]): 130 pM | L/H ratio (5-HT1A receptor): 0.8 | ED50 (serotonin 1A receptor): 0.3 mg/kg, sc

COc1ccc2c(c1CCN1CCC(n3ccc4ccc(C(N)=O)cc43)CC1)OC(C)(C)CC2=O [Compound 22, 1-{1-[2-(7-methoxy-2,2-dimethyl-4-oxochroman-8-yl)ethyl]piperidin-4-yl}-1H-indole-6-carboxamide]
IC50 (5-HT1A receptor; [1]): 130 pM | IC50 (5-HT1A receptor; [2]): 100 pM | L/H ratio (5-HT1A receptor): 0.8 | ED50 (serotonin 1A receptor): 0.1 mg/kg, sc

COc1cc2c(cc1CCN1CCC(n3ccc4ccc(C(N)=O)cc43)CC1)C(=O)CC(C)(C)O2 [Compound 24, 1-{1-[2-(7-methoxy-2,2-dimethyl-4-oxochroman-6-yl)ethyl]piperidin-4-yl}-1H-indole-6-carboxamide]
IC50 (5-HT1A receptor; [1]): 220 pM | IC50 (5-HT1A receptor; [2]): 170 pM | L/H ratio (5-HT1A receptor): 0.8 | ED50 (serotonin 1A receptor): 0.3 mg/kg, sc

COc1ccc2c(c1CCN1CCC(n3ccc4ccc(C(N)=O)cc43)CC1)CCC2=O [Compound 25, 1-{1-[2-(5-methoxy-1-oxoindan-4-yl)ethyl]piperidin-4-yl}-1H-indole-6-carboxamide]
IC50 (5-HT1A receptor; [1]): 180 pM | IC50 (5-HT1A receptor; [2]): 160 pM | L/H ratio (5-HT1A receptor): 0.9 | ED50 (serotonin 1A receptor): 0.1 mg/kg, sc

COc1cc2c(cc1CCN1CCC(n3ccc4ccc(C(N)=O)cc43)CC1)C(=O)CC2 [Compound 26, 1-{1-[2-(6-methoxy-3-oxoindan-5-yl)ethyl]piperidin-4-yl}-1H-indole-6-carboxamide]
IC50 (5-HT1A receptor; [1]): 160 pM | IC50 (5-HT1A receptor; [2]): 200 pM | L/H ratio (5-HT1A receptor): 1.3 | ED50 (serotonin 1A receptor): 0.25 mg/kg, sc

COc1ccc2sc(C)nc2c1CCN1CCC(n2ccc3ccc(C(N)=O)cc32)CC1 [Compound 27, 1-{1-[2-(5-methoxy-2-methylbenzothiazol-4-yl)ethyl]piperidin-4-yl}-1H-indole-6-carboxamide]
IC50 (5-HT1A receptor; [1]): 230 pM | IC50 (5-HT1A receptor; [2]): 260 pM | L/H ratio (5-HT1A receptor): 1.1 | ED50 (serotonin 1A receptor): 0.42 mg/kg, sc

COc1cc2nc(C)sc2cc1CCN1CCC(n2ccc3ccc(C(N)=O)cc32)CC1 [Compound 28, 1-{1-[2-(5-methoxy-2-methylbenzothiazol-6-yl)ethyl]piperidin-4-yl}-1H-indole-6-carboxamide]
IC50 (5-HT1A receptor; [1]): 140 pM | IC50 (5-HT1A receptor; [2]): 190 pM | L/H ratio (5-HT1A receptor): 1.4 | ED50 (serotonin 1A receptor): 0.02 mg/kg, sc

COc1ccc2ncccc2c1CCN1CCC(n2ccc3ccc(C(N)=O)cc32)CC1 [Compound 30, 1-{1-[2-(6-methoxyquinolin-5-yl)ethyl]piperidin-4-yl}-1H-indole-6-carboxamide]
IC50 (5-HT1A receptor; [1]): 200 pM | IC50 (5-HT1A receptor; [2]): 190 pM | L/H ratio (5-HT1A receptor): 1 | ED50 (serotonin 1A receptor): 0.62 mg/kg, sc
